Data set [1] has as its system Japanese encephalitis virus. Briefly: Antiviral activity against Japanese encephalitis virus. In kind it is functional. To be noted: read-out: ED50 (the source's name).
In data set [2] the test system is Human alphaherpesvirus 1. The data set is described as follows: Antiviral activity against Human alphaherpesvirus 1 assessed as plaque reduction at […] relative to control. It is filed as functional. The arrangement: dose or concentration left out as unconfirmed.
For data set [3], the system named is Mycobacterium tuberculosis. The data set is described as follows: Antimycobacterial activity against Mycobacterium tuberculosis H37Rv by test tube dilution technique. In kind it is functional.
The test system of data set [4] is A549. Briefly: Anticancer activity against human A549 cells assessed as cell growth inhibition incubated for 48 hrs by CCK8 assay. In kind it is functional, cell-based. To be noted: A549, 48 h.
For a further data set, the system named is Rattus norvegicus. Briefly: Antiinflammatory activity in rat assessed as reduction in edema at 5 to 20 mg/kg, po measured after 5 hrs relative to control. In kind it is functional. The arrangement: scale not given: the % may be the effect or the level left. To be noted: dose 5-20 mg/kg.
The next data set deals with HOP-92. Briefly: Anticancer activity against human HOP-92 cells assessed as cell growth inhibition incubated for 48 hrs by SRB assay. It is filed as functional.
Another data set deals with LOX IMVI. The data set is described as follows: Anticancer activity against human LOX IMVI cells assessed as cell growth inhibition incubated for 48 hrs by SRB assay. It is filed as functional.
The next data set relates to U-251. Briefly: Anticancer activity against human U-251 cells assessed as cell growth inhibition incubated for 48 hrs by SRB assay. In kind it is functional.
Data set [5] has as its system HCT-116. Briefly: Anticancer activity against human HCT-116 cells assessed as cell growth inhibition incubated for 48 hrs by SRB assay. It is filed as functional.
Another data set concerns A498. Briefly: Anticancer activity against human A498 cells assessed as cell growth inhibition incubated for 48 hrs by SRB assay. In kind it is functional.
In a further data set the test system is NCI-H460. The data set is described as follows: Anticancer activity against human NCI-H460 cells assessed as cell growth inhibition incubated for 48 hrs by SRB assay. It is filed as functional.
Data set [6] can be described thus: Inhibition of Plasmodium falciparum dihydrofolate reductase measured after 48 hrs.
The target of data set [7] is Bifunctional dihydrofolate reductase-thymidylate synthase (Plasmodium vivax, UniProt O02604). Briefly: Inhibition of Plasmodium vivax dihydrofolate reductase measured after 48 hrs.
The test system of data set [8] is Human alphaherpesvirus 1. Briefly: Antiviral activity against Human alphaherpesvirus 1 infected in African green monkey Vero kidney cells assessed as plaque reduction at 80 uM relative to control. In kind it is functional. The arrangement: scale not given: the % may be the effect or the level left.
In the next data set the test system is K562. Briefly: Antiproliferative activity against human K562 cells assessed as cell growth inhibition by MTT assay. It is filed as functional, cell-based.
In data set [9] the test system is A549. The data set is described as follows: Antiproliferative activity against human A549 cells assessed as cell growth inhibition by MTT assay. In kind it is functional, cell-based.
The subject of another data set is MDA-MB-231. Briefly: Antiproliferative activity against human MDA-MB-231 cells assessed as cell growth inhibition by MTT assay. It is filed as functional, cell-based.
The species entered for data set [10] is Mus musculus. The data set is described as follows: Anticonvulsant activity in mouse assessed as MES-induced seizures measured after 30 mins. In kind it is functional. To be noted: 0.5 h.
The species entered for data set [11] is Mus musculus. The data set is described as follows: Antiseizure activity against ScPTZ-induced seizure in mouse. It is filed as functional. Particulars: route sc.
The test system of a further data set is SMMC-7721. Briefly: Anticancer activity against human SMMC-7721 cells assessed as cell growth inhibition incubated for 48 hrs by CCK8 assay. It is filed as functional, cell-based. To be noted: SMMC-7721, 48 h.
A further data set deals with Trypanosoma brucei. The data set is described as follows: […] activity against Trypanosoma brucei assessed as […] growth inhibition. In kind it is functional, organism-based.
A further data set has as its system Leishmania infantum. Briefly: Antileishmanial activity against Leishmania infantum measured after 20 mins. It is filed as functional.
The subject of data set [12] is A549. Briefly: Anticancer activity against human A549 cells assessed as cell growth inhibition incubated for 24 hrs by MTT assay. It is filed as functional, cell-based. Particulars: A549, 24 h.
Data set [13] relates to PC-3. Briefly: Anticancer activity against human PC-3 cells assessed as cell growth inhibition incubated for 24 hrs by MTT assay. To be noted: PC-3, 24 h. It is filed as functional, cell-based.
Data set [14] deals with HCT-116. Briefly: Anticancer activity against human HCT-116 cells assessed as cell growth inhibition incubated for 24 hrs by MTT assay. It is filed as functional, cell-based. To be noted: HCT-116, 24 h.
Another data set relates to MCF7. The data set is described as follows: Anticancer activity against human MCF7 cells assessed as cell growth inhibition incubated for 24 hrs by MTT assay. It is filed as functional, cell-based. Particulars: MCF7, 24 h.
Data set [15] concerns Cytomegalovirus. Briefly: Potency index, ratio of ganciclovir IC50 to test compound IC50 for antiviral activity against Cytomegalovirus. In kind it is functional.
In data set [16] the test system is Cytomegalovirus. The data set is described as follows: Antiviral activity against Cytomegalovirus infected in HFF cells […]. It is filed as functional, organism-based. To be noted: Human betaherpesvirus 5, HFF.
Data set [17] has as its system PC-3. The data set is described as follows: Anticancer activity against human PC-3 cells assessed as cell growth inhibition incubated for 24 hrs by MTS assay. In kind it is functional, cell-based. Particulars: PC-3, 24 h.
The next data set concerns LNCaP. The data set is described as follows: Anticancer activity against human LNCaP cells assessed as cell growth inhibition incubated for 24 hrs by MTS assay. In kind it is functional, cell-based.
The next data set relates to DU-145. The data set is described as follows: Anticancer activity against human DU-145 cells assessed as cell growth inhibition incubated for 24 hrs by MTS assay. In kind it is functional, cell-based. Particulars: DU-145, 24 h.
The subject of data set [18] is Middle East respiratory syndrome-related coronavirus. The data set is described as follows: Antiviral activity of Middle East respiratory syndrome coronavirus. It is filed as functional, organism-based.
The nature of data set [19]: Inhibition of Mycobacterium tuberculosis Shikimate dehydrogenase […]. In kind it is functional.
Data set [20] is described as follows: Oral bioavailability in mouse relative to control. In kind it is ADME, organism-based. To be noted: in vivo.
Data set [21] deals with Vascular endothelial growth factor receptor 2 (Homo sapiens, UniProt P35968). Briefly: Inhibition of human VEGFR2 (unknown origin) incubated for 1 hrs in presence of ATP by ELISA assay.
Data set [22] addresses Hepatocyte growth factor receptor (Homo sapiens, UniProt P08581). The data set is described as follows: Inhibition of c-Met (unknown origin) incubated for 1 hrs in presence of ATP by ELISA assay.

The structures appear in SMILES notation. Converted amounts (≈) assume the structure as drawn. A value given as a limit tells only on which side of the number the result lay.

Vascular endothelial growth factor receptor 2, sequence (P35968 whole entry): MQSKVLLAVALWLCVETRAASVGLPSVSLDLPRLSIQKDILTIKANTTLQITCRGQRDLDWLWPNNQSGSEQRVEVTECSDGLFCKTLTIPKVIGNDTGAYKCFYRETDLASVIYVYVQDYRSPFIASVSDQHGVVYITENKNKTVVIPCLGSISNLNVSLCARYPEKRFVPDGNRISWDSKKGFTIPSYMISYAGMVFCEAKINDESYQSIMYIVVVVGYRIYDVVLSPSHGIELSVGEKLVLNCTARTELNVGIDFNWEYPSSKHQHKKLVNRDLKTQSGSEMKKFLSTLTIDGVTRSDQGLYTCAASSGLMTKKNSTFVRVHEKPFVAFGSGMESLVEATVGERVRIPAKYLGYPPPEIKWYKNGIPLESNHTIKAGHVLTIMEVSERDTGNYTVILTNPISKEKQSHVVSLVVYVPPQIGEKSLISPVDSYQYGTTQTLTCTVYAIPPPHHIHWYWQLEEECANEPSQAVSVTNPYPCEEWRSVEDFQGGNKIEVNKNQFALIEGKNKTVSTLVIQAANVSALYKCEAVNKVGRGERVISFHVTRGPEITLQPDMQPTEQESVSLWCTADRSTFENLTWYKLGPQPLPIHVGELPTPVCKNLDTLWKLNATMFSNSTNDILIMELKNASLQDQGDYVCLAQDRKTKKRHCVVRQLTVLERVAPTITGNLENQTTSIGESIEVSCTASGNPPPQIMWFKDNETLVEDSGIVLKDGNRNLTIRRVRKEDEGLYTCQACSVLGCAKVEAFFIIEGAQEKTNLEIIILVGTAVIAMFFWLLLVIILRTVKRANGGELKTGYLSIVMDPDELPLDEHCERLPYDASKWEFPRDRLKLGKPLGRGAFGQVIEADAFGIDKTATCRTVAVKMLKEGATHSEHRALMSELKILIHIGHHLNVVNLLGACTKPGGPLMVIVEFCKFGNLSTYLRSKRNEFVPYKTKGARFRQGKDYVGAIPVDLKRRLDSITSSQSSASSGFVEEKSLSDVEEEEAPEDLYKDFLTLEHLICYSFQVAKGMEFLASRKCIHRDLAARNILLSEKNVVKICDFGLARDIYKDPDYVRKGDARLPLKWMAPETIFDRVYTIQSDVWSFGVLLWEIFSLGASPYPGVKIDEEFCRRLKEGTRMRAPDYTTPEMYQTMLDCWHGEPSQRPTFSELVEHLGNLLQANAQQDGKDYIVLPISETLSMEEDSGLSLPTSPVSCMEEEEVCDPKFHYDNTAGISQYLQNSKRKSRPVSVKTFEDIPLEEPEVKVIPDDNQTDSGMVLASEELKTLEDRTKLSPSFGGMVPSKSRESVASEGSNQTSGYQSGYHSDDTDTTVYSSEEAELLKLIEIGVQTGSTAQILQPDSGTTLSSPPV
Hepatocyte growth factor receptor, sequence (P08581 whole entry): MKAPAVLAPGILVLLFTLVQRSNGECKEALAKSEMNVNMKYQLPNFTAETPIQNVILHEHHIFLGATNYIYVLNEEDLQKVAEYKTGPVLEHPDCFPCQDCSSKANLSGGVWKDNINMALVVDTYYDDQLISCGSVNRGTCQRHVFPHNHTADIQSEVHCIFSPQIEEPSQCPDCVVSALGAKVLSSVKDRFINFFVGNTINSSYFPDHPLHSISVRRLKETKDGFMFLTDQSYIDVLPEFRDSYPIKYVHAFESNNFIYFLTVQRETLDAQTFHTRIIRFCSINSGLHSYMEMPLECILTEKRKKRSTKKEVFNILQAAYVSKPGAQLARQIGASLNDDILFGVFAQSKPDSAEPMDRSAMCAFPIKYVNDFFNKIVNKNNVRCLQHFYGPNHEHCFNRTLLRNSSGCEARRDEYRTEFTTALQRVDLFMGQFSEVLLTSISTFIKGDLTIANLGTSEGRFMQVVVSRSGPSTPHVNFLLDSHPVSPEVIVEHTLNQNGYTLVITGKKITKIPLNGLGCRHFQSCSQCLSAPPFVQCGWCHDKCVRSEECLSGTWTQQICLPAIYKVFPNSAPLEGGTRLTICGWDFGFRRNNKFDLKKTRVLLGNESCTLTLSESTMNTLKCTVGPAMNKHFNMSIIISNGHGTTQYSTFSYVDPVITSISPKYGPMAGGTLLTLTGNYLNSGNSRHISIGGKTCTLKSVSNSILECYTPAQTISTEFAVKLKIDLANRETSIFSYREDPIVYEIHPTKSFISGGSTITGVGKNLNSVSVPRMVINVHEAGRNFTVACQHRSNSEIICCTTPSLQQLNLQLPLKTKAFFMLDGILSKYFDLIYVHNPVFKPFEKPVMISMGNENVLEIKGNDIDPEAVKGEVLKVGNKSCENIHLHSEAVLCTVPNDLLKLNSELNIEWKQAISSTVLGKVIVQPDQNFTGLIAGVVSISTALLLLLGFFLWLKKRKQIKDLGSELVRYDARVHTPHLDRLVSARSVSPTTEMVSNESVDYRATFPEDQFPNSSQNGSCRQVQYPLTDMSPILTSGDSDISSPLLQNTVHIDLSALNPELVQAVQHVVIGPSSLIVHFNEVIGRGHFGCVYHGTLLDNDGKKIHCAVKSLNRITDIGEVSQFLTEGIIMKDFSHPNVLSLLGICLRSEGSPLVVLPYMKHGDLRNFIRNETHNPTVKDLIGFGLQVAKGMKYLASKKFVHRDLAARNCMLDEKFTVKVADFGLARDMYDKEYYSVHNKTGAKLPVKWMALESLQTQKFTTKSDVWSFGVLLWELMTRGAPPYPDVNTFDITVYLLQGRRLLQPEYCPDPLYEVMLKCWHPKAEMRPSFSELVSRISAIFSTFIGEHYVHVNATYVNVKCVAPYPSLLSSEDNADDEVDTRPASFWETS
Bifunctional dihydrofolate reductase-thymidylate synthase, sequence (O02604 whole entry): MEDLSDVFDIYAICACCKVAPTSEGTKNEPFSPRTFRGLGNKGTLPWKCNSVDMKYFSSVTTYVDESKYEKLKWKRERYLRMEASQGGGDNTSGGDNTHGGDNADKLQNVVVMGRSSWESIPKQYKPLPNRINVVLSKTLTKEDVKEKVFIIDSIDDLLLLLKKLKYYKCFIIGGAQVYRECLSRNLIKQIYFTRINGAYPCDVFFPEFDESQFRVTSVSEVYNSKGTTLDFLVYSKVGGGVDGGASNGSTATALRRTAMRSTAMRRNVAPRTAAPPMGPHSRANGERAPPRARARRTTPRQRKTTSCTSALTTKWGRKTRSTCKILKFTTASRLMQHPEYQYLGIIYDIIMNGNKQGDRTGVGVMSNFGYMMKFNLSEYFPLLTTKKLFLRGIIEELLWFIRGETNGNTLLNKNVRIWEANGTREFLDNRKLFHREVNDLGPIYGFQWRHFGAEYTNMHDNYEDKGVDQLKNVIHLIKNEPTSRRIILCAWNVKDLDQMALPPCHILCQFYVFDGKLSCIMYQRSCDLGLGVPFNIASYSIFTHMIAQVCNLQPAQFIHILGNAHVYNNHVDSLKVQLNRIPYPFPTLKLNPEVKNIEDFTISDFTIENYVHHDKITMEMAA

`CN1C(=O)c2ccccc2N(c2cccc(-c3nnc4n3NC(c3ccccc3)=C(c3ccccc3)S4)c2)C1c1ccccc1` (stereo not drawn): the EC50 in data set [1] was 7.8 µg/mL (≈ 12.9 µM).

As to `Cc1ccc2nc(Cl)c3nnc(NC(=S)Nc4ccccc4)n3c2c1`, the Activity with Human alphaherpesvirus 1 [2] was 25%.

The molecule `c1cncc(-c2nn3c(COc4cnccn4)nnc3s2)c1` came in with an MIC in data set [3] of 0.4 µg/mL (≈ 1.28 µM).

In the case of `CCCCSSc1nnc(-c2ccccc2)n1N`, the IC50 in the data set on A549 [4] was 2790 nM.

For the molecule `O=C(CSc1nncn1CC(=O)N/N=C/c1ccc(O)cc1)N/N=C/c1ccc(O)cc1`, in the data set on Rattus norvegicus, the Activity came out at 64.44%.

On to `Clc1ccccc1-c1nnc2c(Cc3ccccc3)nc3ccccc3n12`, for which the GI50 with HOP-92 is 3910 nM; with LOX IMVI, 5180 nM; with U-251 it was 1960 nM; in the data set with HCT-116 [5] it was 3490 nM; with A498, 1800 nM; in the data set with NCI-H460, 3450 nM.

As to `CC1=NC2NC(CC(F)(F)F)=NN2C(Nc2ccc(C(F)(F)F)nc2)=C1` (stereo not drawn), the results for the half-maximal inhibitory concentration (IC50) in [6] and in [7] were 53 nM and 94 nM, respectively.

In the case of `CCOC(=O)CSc1nc2n(n1)C(=O)C(CCCl)C(C)N2` (stereo not drawn), the Activity in the data set on Human alphaherpesvirus 1 [8] is listed as 50%.

Take `Cc1nn(-c2ccc(Br)cc2)c(=O)n1-n1c(-c2cc3ccccc3oc2=O)cs/c1=N\c1ccc(Cl)cc1`: the IC50 with K562, in the data set on A549 [9] and with MDA-MB-231 was 0.16 µg/mL (≈ 0.264 µM) throughout.

Consider `O=C(CSc1nc[nH]n1)Nc1nc2ccc(OCc3ccc(F)cc3)cc2s1`, for which the ED50 in the data set listed under Mus musculus [10] was determined as 54.8 mg/kg; in the data set filed under Mus musculus [11] it was 52.8 mg/kg.

Turning to `CC(C)SSc1nnc(-c2ccccc2)n1N`, the half-maximal inhibitory concentration (IC50) in the data set on SMMC-7721 is 2970 nM.

Take `Cc1nc(C)c(C(=O)Nc2ccc(F)c(-c3nc4ncc(C(C)(C)C)cn4n3)c2)o1`: the EC50 with Trypanosoma brucei amounted to 30 nM.

`Nn1c(S)nnc1Cn1nc(Cc2cccs2)n(N)c1=O` displayed an MIC in the data set with Leishmania infantum of 625 µg/mL (≈ 1930 µM).

With `CC1CNCC(C)N1c1ccc(Nc2nccc(N3CCn4c(nnc4-c4ccc(F)c(Cl)c4)C3)n2)cc1` (stereo not drawn), the IC50 was 2140 nM in the data set on A549 [12], 5520 nM with PC-3 [13], 3590 nM in the data set on HCT-116 [14] and 3690 nM in the data set on MCF7.

On to `Nc1nc2c(ncn2COC(CO)CO)c(=O)[nH]1` [GANCICLOVIR], for which the “Ratio IC50” value with Cytomegalovirus [15] is over 256. Moreover, in the data set on Cytomegalovirus [16], inhibition was half-maximal at 590 nM (IC50).

`COc1ccc2cc(C(C)c3nnc(SCC(=O)N/N=C/c4cc([N+](=O)[O-])ccc4-c4ccco4)n3-c3ccc(F)cc3)ccc2c1` (stereo not drawn): the values for the 50% inhibitory concentration (IC50) in the data set with PC-3 [17], in the data set on LNCaP and in the data set with DU-145 were 26000 nM, 48800 nM and 34500 nM, respectively.

`Sc1nnc(NNc2ccc(I)cc2)n1NC1C=CCC1` (stereo not drawn) gave an IC50 in [18] of 470 nM.

On to `O=C(CSc1nc[nH]n1)Nc1nc2ccc(OCc3cccc(F)c3)cc2s1`, for which the ED50 in the data set filed under Mus musculus [10] was determined as 50.8 mg/kg; in the data set listed under Mus musculus [11] it was 76 mg/kg.

On to `COc1ccc(OCc2nn3c(-c4ccc(Br)cc4)nnc3s2)cc1`, for which, in data set [19], the “log(activity)” value is 1.7. The molecule also came in with a bioavailability in data set [20] of 14%.

As to `Cc1c(C(=O)Nc2ccc(Oc3ccnc(-c4nncn4CN4CCN(C)CC4)c3)c(F)c2)c(=O)n(-c2ccccc2)n1C`, the IC50 came to 190 nM in data set [21] and 110 nM in data set [22].

For the origin of these results see ChEMBL document CHEMBL5244255, “An insight on medicinal attributes of 1,2,4-triazoles” (Eur J Med Chem, 2020).
